Source: article PMC10281575, “PfCRT mutations conferring piperaquine resistance in falciparum malaria shape the kinetics of quinoline drug binding and transport” (PLOS Pathogens, 2023)
“And” between values parts separate entries of the source, which are not always exact repeats. Equal entries are not always repeated.

Experiments:
[1] = target: T1, PfCRT^Dd2 (Plasmodium falciparum, UniProt Q8IBZ9, A220S/I356T/K76T/M74I/N326S/N75E/Q271E/R371I); assay: Radiolabeled drug uptake (transport assay) in Xenopus laevis oocytes expressing PfCRT^Dd2; format: cell-based; parameters: expressed in transfected cells; host or cells: Xenopus laevis oocytes injected with in vitro transcribed RNA (pSP64T)
T1 sequence (Q8IBZ9 1-424 M74I/N75E/K76T/A220S/Q271E/N326S/I356T/R371I): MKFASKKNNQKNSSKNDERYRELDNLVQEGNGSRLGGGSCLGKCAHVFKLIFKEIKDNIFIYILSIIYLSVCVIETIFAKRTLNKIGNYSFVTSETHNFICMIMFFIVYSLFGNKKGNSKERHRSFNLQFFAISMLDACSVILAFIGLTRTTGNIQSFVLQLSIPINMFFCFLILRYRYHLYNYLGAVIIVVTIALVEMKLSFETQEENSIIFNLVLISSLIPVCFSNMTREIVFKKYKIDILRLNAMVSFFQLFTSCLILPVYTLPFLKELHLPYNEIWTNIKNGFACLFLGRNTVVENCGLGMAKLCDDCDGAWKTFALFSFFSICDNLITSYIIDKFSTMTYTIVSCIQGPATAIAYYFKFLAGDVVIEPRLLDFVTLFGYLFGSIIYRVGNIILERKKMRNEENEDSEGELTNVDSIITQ
Experimental: The two kinetic parameters were derived by fitting the Michaelis-Menten equation to the kinetic data (Table 1).
(§1) Adult female X. laevis frogs (purchased from NASCO) were anesthetized by submersion in a solution of 0.3% (w/v) 3-amino benzoate methanesulfonate for 15 min. Sections of the ovary were surgically removed and placed in Ca^2+-free ND96 buffer supplemented with 0.1% collagenase D (w/v; Roche), 0.5% BSA (w/v) and 9 mM Na2HPO4 at 18°C for 14–16 h while gently shaking. The oocytes were then washed several times with ND96 buffer (5 mM HEPES, pH 7.5, 96 mM NaCl, 2 mM KCl, 1.8 mM CaCl2, 1 mM MgCl2), supplemented with […] gentamycin. Healthy-looking stage V-VI oocytes were manually selected and randomly grouped for injection. A codon-optimized coding sequence of PfCRT was subcloned into the pSP64T expression vector and subsequently linearized using the restriction endonuclease BamHI or SalI (New England Biolabs GmbH). RNA for injection was transcribed in vitro using the mMESSAGE mMACHINE SP6 Transcription kit (Ambion), diluted with nuclease-free water to a final concentration of 0.6 μg/μL and stored at -80°C. RNA was injected using precision-bore glass capillary tubes (3.5-inch glass capillaries; Drummond Scientific Co.), which were pulled on a vertical puller (P-87 Flaming/Brown micropipette puller, Sutter Instrument Co.) and graduated. The micropipettes were connected to a microinjector (Nanoject II Auto-Nanoliter Injector, Drummond Scientific Co.). Injection was conducted under stereomicroscopic control. 50 nL of nuclease-free water alone (control oocytes) or 50 nL of nuclease-free water containing 30 ng of RNA was injected per oocyte. Injected oocytes were kept for 72 h at 18°C in ND96 buffer with two daily buffer changes before being used for further experiments.
(§2) Drug transport assays were performed as previously described. Briefly, measurements of radiolabeled drug uptake were made over 1 h, unless otherwise specified. […] Where specified, one or more unlabeled drugs were also present at the indicated concentrations. […] The uptake assays were terminated by removing the oocytes from the reaction medium and washing them three times with 2 mL of ice-cold ND96 buffer. Each oocyte was transferred to a separate scintillation vial and lysed by the addition of 200 μL of a 5% SDS solution. The radioactivity in the sample was measured using a liquid scintillation analyser Tri-Carb 4910 TR (PerkinElmer). Water-injected oocytes were analyzed in parallel as a negative control. The buffer from each condition was measured in duplicate in parallel to each experiment to transform counts per minute into pmol of drug. Drug uptake attributable to PfCRT was determined by subtracting the background uptake from water-injected oocytes from that of PfCRT-expressing oocytes. In all cases, at least three independent experiments were performed on oocytes from different frogs, and for each condition in an experiment, measurements were made from 10 oocytes per treatment.

[2] = target: T2, PfCRT^HB3 (Plasmodium falciparum, UniProt Q8IBZ9); assay: Radiolabeled drug uptake in X. laevis oocytes expressing wild type PfCRT^HB3; format: cell-based; settings: 50 μM CQ, pH 6.0
T2 construct: expressed in transfected cells; host or cells: Xenopus laevis oocytes injected with in vitro transcribed RNA (pSP64T)
T2 sequence (Q8IBZ9 whole entry): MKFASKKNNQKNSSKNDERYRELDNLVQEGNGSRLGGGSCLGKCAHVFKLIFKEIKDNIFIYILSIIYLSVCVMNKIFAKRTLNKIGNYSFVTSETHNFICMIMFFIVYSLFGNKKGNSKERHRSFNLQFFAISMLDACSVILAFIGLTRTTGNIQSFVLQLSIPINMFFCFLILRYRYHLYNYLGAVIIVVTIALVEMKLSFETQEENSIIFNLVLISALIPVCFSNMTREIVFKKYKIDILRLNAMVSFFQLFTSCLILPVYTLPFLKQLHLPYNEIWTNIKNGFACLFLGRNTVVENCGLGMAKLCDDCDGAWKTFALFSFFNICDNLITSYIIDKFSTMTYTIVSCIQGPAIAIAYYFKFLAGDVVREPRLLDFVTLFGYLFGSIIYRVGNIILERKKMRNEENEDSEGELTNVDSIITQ
Experimental: as §1, §2

[3] = 50 μM CQ, pH 6.0, total uptake, one value per biological replicate
[4] = 50 μM CQ, pH 6.0, water-injected uptake subtracted, per replicate
[5] = 60 min, pH 6, per biological replicate
[6] = total uptake, one value per biological replicate
[7] = water-injected uptake subtracted, per replicate

## CCN(CC)CCCC(C)Nc1ccnc2cc(Cl)ccc12 (centres unmarked) [CQ, chloroquine]
[1]; 10 µM CQ, single replicates
  PfCRTDd2-mediated CQ uptake at 10 µM CQ: 0.97 pmol oocyte-1 h-1 and 1.33 pmol oocyte-1 h-1 and 1.00 pmol oocyte-1 h-1
[1]; [3]
  PfCRTDd2 uptake of CQ at 10 min: 5.12 pmol oocyte-1 and 4.60 pmol oocyte-1 and 2.93 pmol oocyte-1 and 4.96 pmol oocyte-1
  PfCRTDd2 uptake of CQ at 30 min: 6.73 pmol oocyte-1 and 14.34 pmol oocyte-1 and 5.71 pmol oocyte-1
  PfCRTDd2 uptake of CQ at 60 min: 19.28 pmol oocyte-1 and 12.33 pmol oocyte-1 and 10.23 pmol oocyte-1 and 14.77 pmol oocyte-1
  PfCRTDd2 uptake of CQ at 90 min: 15.72 pmol oocyte-1 and 19.85 pmol oocyte-1 and 18.63 pmol oocyte-1 and 19.17 pmol oocyte-1
  PfCRTDd2 uptake of CQ at 120 min: 20.73 pmol oocyte-1 and 30.99 pmol oocyte-1 and 21.07 pmol oocyte-1
  PfCRTDd2 uptake of CQ at 180 min: 26.87 pmol oocyte-1 and 30.32 pmol oocyte-1 and 26.73 pmol oocyte-1 and 25.67 pmol oocyte-1
[1]; [4]
  PfCRTDd2-mediated CQ uptake at 10 min: 1.03 pmol oocyte-1 and 0.90 pmol oocyte-1 and 1.98 pmol oocyte-1 and 0.91 pmol oocyte-1
  PfCRTDd2-mediated CQ uptake at 30 min: 1.52 pmol oocyte-1 and 5.01 pmol oocyte-1 and 4.35 pmol oocyte-1
  PfCRTDd2-mediated CQ uptake at 60 min: 4.91 pmol oocyte-1 and 4.76 pmol oocyte-1 and 7.49 pmol oocyte-1 and 5.04 pmol oocyte-1
  PfCRTDd2-mediated CQ uptake at 120 min: 9.09 pmol oocyte-1 and 10.40 pmol oocyte-1 and 9.67 pmol oocyte-1
  PfCRTDd2-mediated CQ uptake at 180 min: 13.62 pmol oocyte-1 and 9.61 pmol oocyte-1 and 9.37 pmol oocyte-1 and 10.85 pmol oocyte-1
  PfCRTDd2-mediated CQ uptakeat 90 min: 7.12 pmol oocyte-1 and 4.31 pmol oocyte-1 and 9.50 pmol oocyte-1 and 9.09 pmol oocyte-1
[1]; 50 µM CQ, single replicates
  PfCRTDd2-mediated CQ uptake at 50 µM CQ: 3.98 pmol oocyte-1 h-1 and 2.97 pmol oocyte-1 h-1 and 3.90 pmol oocyte-1 h-1 and 4.91 pmol oocyte-1 h-1 and 4.76 pmol oocyte-1 h-1 and 7.49 pmol oocyte-1 h-1 and 10.46 pmol oocyte-1 h-1 and 5.04 pmol oocyte-1 h-1
[1]; 100 µM CQ, single replicates
  PfCRTDd2-mediated CQ uptake at 100 µM CQ: 9.74 pmol oocyte-1 h-1 and 9.30 pmol oocyte-1 h-1 and 7.99 pmol oocyte-1 h-1
[1]; 200 µM CQ, single replicates
  PfCRTDd2-mediated CQ uptake at 200 µM CQ: 17.86 pmol oocyte-1 h-1 and 9.84 pmol oocyte-1 h-1 and 13.66 pmol oocyte-1 h-1 and 12.77 pmol oocyte-1 h-1
[1]; 300 µM CQ, single replicates
  PfCRTDd2-mediated CQ uptake at 300 µM CQ: 20.89 pmol oocyte-1 h-1 and 20.25 pmol oocyte-1 h-1 and 12.53 pmol oocyte-1 h-1
[1]; 400 µM CQ, single replicates
  PfCRTDd2-mediated CQ uptake at 400 µM CQ: 20.30 pmol oocyte-1 h-1 and 20.79 pmol oocyte-1 h-1 and 20.10 pmol oocyte-1 h-1
[1]; 500 µM CQ, single replicates
  PfCRTDd2-mediated CQ uptake at 500 µM CQ: 20.49 pmol oocyte-1 h-1 and 20.91 pmol oocyte-1 h-1 and 20.75 pmol oocyte-1 h-1 and 25.01 pmol oocyte-1 h-1
[1]; [5]
  PfCRTDd2-mediated CQ uptake at 10 µM CQ: 0.97 pmol oocyte-1 h-1 and 1.33 pmol oocyte-1 h-1 and 1.00 pmol oocyte-1 h-1
  PfCRTDd2-mediated CQ uptake at 50 µM CQ: 3.98 pmol oocyte-1 h-1 and 2.97 pmol oocyte-1 h-1 and 3.90 pmol oocyte-1 h-1 and 4.91 pmol oocyte-1 h-1 and 4.76 pmol oocyte-1 h-1 and 7.49 pmol oocyte-1 h-1 and 10.46 pmol oocyte-1 h-1 and 5.04 pmol oocyte-1 h-1
  PfCRTDd2-mediated CQ uptake at 100 µM CQ: 9.74 pmol oocyte-1 h-1 and 9.30 pmol oocyte-1 h-1 and 7.99 pmol oocyte-1 h-1
  PfCRTDd2-mediated CQ uptake at 200 µM CQ: 17.86 pmol oocyte-1 h-1 and 9.84 pmol oocyte-1 h-1 and 13.66 pmol oocyte-1 h-1 and 12.77 pmol oocyte-1 h-1
  PfCRTDd2-mediated CQ uptake at 300 µM CQ: 20.89 pmol oocyte-1 h-1 and 20.25 pmol oocyte-1 h-1 and 12.53 pmol oocyte-1 h-1
  PfCRTDd2-mediated CQ uptake at 400 µM CQ: 20.30 pmol oocyte-1 h-1 and 20.79 pmol oocyte-1 h-1 and 20.10 pmol oocyte-1 h-1
  PfCRTDd2-mediated CQ uptake at 500 µM CQ: 20.49 pmol oocyte-1 h-1 and 20.91 pmol oocyte-1 h-1 and 20.75 pmol oocyte-1 h-1 and 25.01 pmol oocyte-1 h-1
[1]; Michaelis-Menten fit, 10-500 μM drug, 60 min, pH 6
  Vmax, maximal velocity of drug transport: 33 ± 1 pmol oocyte^-1 h^-1
[1]; Michaelis-Menten fit, 10-500 μM drug, 60 min, pH 6, read-out: KM, Michaelis constant
  Km: 260 ± 10 µM
[1]; S6 Fig, per biological replicate
  PfCRTDd2-mediated CQ transport: 7.120 pmol oocyte-1 h-1 and 4.130 pmol oocyte-1 h-1 and 5.320 pmol oocyte-1 h-1
[2]; [6]
  PfCRTHB3 uptake of CQ at 10 min: 3.76 pmol oocyte-1 and 2.69 pmol oocyte-1 and 4.10 pmol oocyte-1 and 2.94 pmol oocyte-1
  PfCRTHB3 uptake of CQ at 30 min: 5.04 pmol oocyte-1 and 6.21 pmol oocyte-1 and 4.82 pmol oocyte-1
  PfCRTHB3 uptake of CQ at 60 min: 10.53 pmol oocyte-1 and 9.06 pmol oocyte-1 and 13.05 pmol oocyte-1 and 9.38 pmol oocyte-1
  PfCRTHB3 uptake of CQ at 90 min: 10.44 pmol oocyte-1 and 13.59 pmol oocyte-1 and 10.43 pmol oocyte-1
  PfCRTHB3 uptake of CQ at 120 min: 15.66 pmol oocyte-1 and 14.17 pmol oocyte-1 and 15.57 pmol oocyte-1
  PfCRTHB3 uptake of CQ at 180 min: 15.78 pmol oocyte-1 and 15.62 pmol oocyte-1 and 19.97 pmol oocyte-1
[2]; [7]
  PfCRTDd2_HB3-mediated CQ uptake at 60 min: 0.25 pmol oocyte-1 and -1.21 pmol oocyte-1 and 2.78 pmol oocyte-1 and -0.90 pmol oocyte-1
  PfCRTHB3-mediated CQ uptake at 10 min: 0.87 pmol oocyte-1 and -0.20 pmol oocyte-1 and 1.21 pmol oocyte-1 and 0.05 pmol oocyte-1
  PfCRTHB3-mediated CQ uptake at 30 min: 1.16 pmol oocyte-1 and -0.23 pmol oocyte-1 and 0.94 pmol oocyte-1 and -0.44 pmol oocyte-1
  PfCRTHB3-mediated CQ uptake at 90 min: -0.39 pmol oocyte-1 and 2.75 pmol oocyte-1 and -0.41 pmol oocyte-1
  PfCRTHB3-mediated CQ uptake at 120 min: 0.98 pmol oocyte-1 and -0.51 pmol oocyte-1 and 0.90 pmol oocyte-1
  PfCRTHB3-mediated CQ uptake at 180 min: -0.99 pmol oocyte-1 and -1.15 pmol oocyte-1 and 3.20 pmol oocyte-1
